Laboratory results as given in article PMC7961786, “Magic Peptide: Unique Properties of the LRR11 Peptide in the Activation of Leukotriene Synthesis in Human Neutrophils” (International Journal of Molecular Sciences, 2021).
“Also recorded” adds a separate entry of the source.

Tests used:
[1] = test system: 5′-biotinylated C-CpG; test: TSM acoustic biosensor, peptide binding to immobilized C-CpG
Text: (§1) To characterize the interaction of the studied synthetic ODNs with the LRR11 peptide, we applied the thickness shear mode (TSM) acoustic biosensor method, which is based on the investigation of ultrasonic waves in piezoelectric materials such as AT-cut quartz. This approach involved immobilizing a 5′-biotinylated ODN on the surface of TSM transducer covered by NeutrAvidin and then adding the LRR11 peptide. An unrelated peptide (URP) with a random primary structure ([…]) was used as a negative control. The measurement procedure was divided into several steps, in which each immobilization stage was followed by washing with an appropriate buffer solution; when peptide solutions at different concentrations (from 1 to 100 nM) were added to the surface-modified TSM transducer, a wash with Hanks buffer was used before increasing the peptide concentration.
Based on Langmuir isotherm Equation (1), (1) Δfcc=Δfsmaxc/KD+c where Δfs(c) is the frequency change at a certain peptide concentration under equilibrium conditions, (Δfs)max is the maximum frequency change, c is the peptide concentration, and KD is the equilibrium constant of dissociation, we estimated the (Δfs)max and KD values for binding of the LRR11 peptide to C-CpG and B-CpG (Table 3).
Using Sauerbrey’s Equation (2), (2) Δf=−2f02Δm/Aμqρq where f0 is the fundamental resonance frequency (in our case 8 MHz), Δm is the change in mass (in grams) of the adsorbed layer on the crystal surface, A is the effective crystal area (in our case 0.2 cm^2), μq = 2.947 × 10^11 g × cm^−1s^−2 is the shear modulus of elasticity, and ρq = 2.648 g × cm^−3 is the crystal density, surface concentrations of NeutrAvidin, ODN and LRR11 peptide were estimated based on changes of resonance frequency (Figure 4). According to Equation (2), the surface density of molecules, σ (in molecules/cm^2), can be calculated as σ = ΔmNA/(A × Mw), where NA is Avogadro’s number (=6.023 × 10^23 mol^−1), and Mw represents the molecular weight of the corresponding compound (NeutrAvidin: 65 kDa, 5′-biotinylated C-CpG: 7115.4 Da, and LRR11: 3421 Da). Based on this approach, we obtained the following surface concentration values: 1.94 × 10^13 cm^−2 for NeutrAvidin, 3.37 × 10^13 cm^−2 for C-CpG and 2.4 × 10^13 cm^−2 for LRR11. The NeutrAvidin has four binding sites, two of which are available for biotinylated ODN binding. This is due to the fact that the other two sites are inaccessible due to NeutrAvidin chemisorption on the TSM surface. Thus, the number of available binding sites for the ODN is 3.88 × 10^13 cm^−2. […] Therefore, the surface of the TSM transducer is practically completely saturated by C-CpG. Estimation of the surface concentration of LRR11 evidences that at 50 nM concentration of this peptide, it occupies almost 70.6% of the ODN molecules. […]

[2] = test system: 5′-biotinylated G-rich ODN; test: TSM acoustic biosensor, peptide binding to immobilized G-rich ODN; conditions: LRR11 1 to 100 nM, Hanks buffer
Text: as §1
(§2) Eight MHz AT-cut piezoelectric quartz crystal transducer was obtained from CH Instruments, Austin, TX, USA. The transducer was covered on both sides with thin layers of gold that served as electrodes (working area 0.2 cm^2). Prior ODNs immobilization, the crystal was carefully cleaned with basic Piranha solution (29% NH3, 30% H2O and H2O2 with volumetric 1:5:1 ratio, respectively) for 25 min. After the thorough cleaning, the crystal was positioned between two silicon O-rings in a flow-through cell. […]

[3] = test system: NeutrAvidin; test: TSM acoustic biosensor, unspecific binding to NeutrAvidin in the absence of ODNs
Text: as §1, §2

[4] = test system: CpG-ODNs; conditions: ref [8]; cited from earlier work
Text: (§3) In neutrophils, bacteria and pathogen-associated molecular patterns (PAMPs) that are expressed by microorganisms are recognized by Toll-like receptors (TLRs). In particular, the mechanisms of immunoregulatory activity of CpG-containing bacterial or synthetic DNA fragments include their interaction with TLR9 receptors, known as DNA sensors. Therefore, synthetic peptides that mimics DNA recognizing regions of the receptor can be effective modulators of neutrophil cell responses. The crystal structure of TLR9 was analyzed and it was predicted that leucine-rich repeats (L ...

[5] = test system: TLR9 signaling in RAW 264.7; conditions: ref [9]; cited from earlier work
Text: as §3

[6] = test system: mouse-derived monocyte/macrophage cell line RAW 264.7; conditions: ref [9]; cited from earlier work
Text: as §3

Row | Substance | change of ∆fs at low LRR11 concentrations ([1]; 1, 5, 10 nM LRR11, C-CpG) | interaction with G-rich ODN [2] | unspecific binding to NeutrAvidin [3] | binding to CpG-ODNs [4] | effect on TLR9 signaling [5] | effect on oligonucleotide internalization [6] | KA ([1]; LRR11-C-CpG complex, KA = 1/KD) [nM⁻¹] | −(Δfs)max ([1]; LRR11 to immobilized C-CpG, Langmuir fit, Hanks buffer, room temperature, LRR11 1-100 nM, three independent experiments) [Hz]
1 | QLRKLNLSFNYQKRVSFAHLSLAPSFGSLV [LRR11, 30 amino acid peptide from leucine-rich repeat of TLR9] | not significant or small changes of ∆fs | does not interact with the LRR11 peptide at any concentration; also recorded: no significant change of resonant frequency was observed | no unspecific biding | can bind to the CpG-ODNs | attenuating of TLR9 signaling | decrease in the oligonucleotide internalization | – | –
2 | 5′-tcgtcgttttcggcgcgcgccg-3′ (DNA TCGTCGTTTTCGGCGCGCGCCG; chemistry not fully specified) [C-CpG] | – | – | – | – | – | – | 0.017 ± 0.007 | 33.9 ± 6.4
